# Results reported in paper PMC7177633, “Effective Cellular Transport of Ortho-Halogenated Sulfonamide Derivatives of Metformin Is Related to Improved Antiproliferative Activity and Apoptosis Induction in MCF-7 Cells” (International Journal of Molecular Sciences, 2020).
# Tests used:
# MCF-7 cells [1] = test: Uptake in the presence of OCT and MATE inhibitors, MCF-7 cells; format: in vitro ADME, human; details: for uptake in the presence of cimetidine, MCF-7 / uptake in the presence of disopyramide, MCF-7 / uptake in the presence of lopinavir, MCF-7 / uptake in the presence of methenamine, MCF-7: compound and inhibitor 400 and 800 µmol/L, 10 min, 37 °C; for interactions with OCT, PMAT and MATE1 transporters, MCF-7: summary from uptake with inhibitors
# Outline: (§1)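 Cells incubated 10 min at 37 °C in HBSS with metformin sulfonamide derivatives at 400 and 800 μmol/L plus disopyramide, cimetidine, lopinavir or methenamine as OCT/MATE/PMAT inhibitors. Intracellular compound concentration then determined by the previously described protocol.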
# MDA-MB-231 cells [2] = test: Uptake in the presence of OCT and MATE inhibitors, MDA-MB-231 cells; format: in vitro ADME, human; details: for interactions with OCT, PMAT and MATE1 transporters, MDA-MB-231: summary from uptake with inhibitors
# Outline: as §1
# MCF-7 cells [3] = test: Annexin V-FITC/PI apoptosis assay, MCF-7; format: cell-based, human; details: for Early Apoptotic [E+−] / Late Apoptotic [E++] / Living Cells [E−−] / Necrotic Cells [E−+] / Single Cells in Gate B: MCF-7, 24 h
# Procedure: MCF-7 and MDA-MB-231 cells were seeded at a density of 5 × 10^4 per well on 24-well plates and incubated for 24 h (37 °C, 5% CO2) to obtain 70 % confluency. Then, the medium (control) or medium with the tested compounds in a volume of 250 μL was added and incubated for another 24 h. The cells were harvested using accutase (Sigma Aldrich, St. Louis, MO, USA) as a detaching reagent, collected to Eppendorf tubes and centrifuged (1100 rpm, 5 min). Afterwards, the cells were resuspended in 1 mL of a cold cell-staining buffer (Biolegend, London UK) and washed twice with a cell-staining buffer. The final step included suspension of the cell pellets in 100 μL of a binding buffer, staining with propidine iodide (PI; 10 μL) and FITC-annexin solutions (AV; 5 μL) (FITC Annexin V Apoptosis Detection Kit with PI (Biolegend, UK)). The samples were incubated for 20 min at room temperature in the dark, followed by an analysis conducted on a cytometer (CytoFlex, blue laser, 480 nm, Beckman-Coulter, Indianapolis, IN, USA). The results were analyzed using Kaluza 2.1 (Beckman-Coulter) software.
# Annexin V (−) and PI (−) cells were considered living cells, annexin V (+) and PI (−) as early-apoptotic cells, annexin V (+) and PI (+) as late-apoptotic cells and annexin V (−) and PI (+) as necrotic cells.
# The experiments were conducted in triplicates (n = 3). The coefficients of variation for the assay were determined (CV = 0.97–13.62%, depending on the calculated cell population).
# MDA-MB-231 cells [4] = test: Cell cycle analysis (PI, flow cytometry), MDA-MB-231; format: cell-based, human; details: MDA-MB-231, 24 h, 2600 µmol/L (IC50 value)
# Procedure: MCF-7 and MDA-MB-231 cells were seeded in 6-well plates at a density of 2 × 10^5 cells per well and cultured for 24 h under standard conditions (with 2 mL of the medium). Next, cells were exposed to the tested compounds at concentrations corresponding to IC50. After 24 h of treatment, control and treated cells were then collected (washed with cold PBS and treated with accutase), transferred to Eppendorf tubes and centrifuged (1100 rpm, 5 min, 5 °C). The supernatant was discarded, cold PBS was added (1 mL) and the cells were centrifuged (1200 rpm, 5 min). The solution was removed, and the cells were fixed in cold 70% ethanol at 4 °C. Prior to the analysis, the cells were centrifuged (3600 rpm, 5 min) and washed twice with PBS. The solution was discarded, the pellets were suspended in 200 µL of PBS and incubated with ribonuclease at 37 °C (25 µL, final concentration in a sample was 100 µg/mL) for 30 min and stained with propidine iodide (12.5 µL, final concentration in a sample was 50 µg/mL) in darkness at room temperature for additional 20 min. The final volume of the sample was 250 µL.
# DNA content and the number of cells in individual cell cycle phases was measured by flow cytometry (CytoFlex, blue laser, 480 nm, Beckman-Coulter, Indianapolis, IN, USA). Cells (20,000) were analyzed from each sample. The percentage of cells in each cell cycle phase was calculated from live cells that were expressed as 100%. The data are presented as the mean ± SD of three independent experiments. The coefficients of variation for the assay were established (CV = 0.37–11.78%, depending on the cell population).
# [5] = compound and inhibitor 400 and 800 µmol/L, 10 min, 37 °C
# [6] = MCF-7, 430 uM, representative cytogram Figure 7A
# [7] = IC50 (Comp. 1 13, Comp. 4 430, Comp. 7 55 μmol/L)
# [8] = ½ × IC50 (Comp. 1 6.5, Comp. 4 215, Comp. 7 27.5 μmol/L)
# [9] = ½ × IC50 (Comp. 1 6.5, Comp. 4 215, Comp. 7 27.5 μmol/L), listed as Comp. 4
"uptake in the presence of cimetidine, MCF-7 (MCF-7 cells [1])","uptake in the presence of lopinavir, MCF-7 (MCF-7 cells [1])","uptake in the presence of methenamine, MCF-7 (MCF-7 cells [1])","interactions with OCT, PMAT and MATE1 transporters, MCF-7 (MCF-7 cells [1])","uptake in the presence of cimetidine, MDA-MB-231 (MDA-MB-231 cells [2]; [5])","uptake in the presence of disopyramide, MDA-MB-231 (MDA-MB-231 cells [2]; [5])","uptake in the presence of lopinavir, MDA-MB-231 (MDA-MB-231 cells [2]; [5])","interactions with OCT, PMAT and MATE1 transporters, MDA-MB-231 (MDA-MB-231 cells [2])",Structure (SMILES),"uptake in the presence of disopyramide, MCF-7 (MCF-7 cells [1])",Early Apoptotic [E+−] (MCF-7 cells [3]; [7]),Late Apoptotic [E++] (MCF-7 cells [3]; [7]),Living Cells [E−−] (MCF-7 cells [3]; [7]),Necrotic Cells [E−+] (MCF-7 cells [3]; [7]),Single Cells in Gate B (MCF-7 cells [3]; [7]),Early Apoptotic [E+−] (MCF-7 cells [3]; [8]),Late Apoptotic [E++] (MCF-7 cells [3]; [8]),Living Cells [E−−] (MCF-7 cells [3]; [8]),Necrotic Cells [E−+] (MCF-7 cells [3]; [8]),Single Cells in Gate B (MCF-7 cells [3]; [8]),other results
did not change,increased the uptake,did not change,"OCT1, PMAT",significantly decreased,significantly decreased,increased,"OCT1, OCT3, PMAT",CN(C)C(=N)N=C(N)NS(=O)(=O)c1ccccc1Br [Compound 4],increased the uptake,22.71 ± 2.11 %,60.16 ± 2.21%,16.84 ± 1.93 %,0.29 ± 0.09 %,83.19 ± 0.40 %,30.69 ± 3.01%,34.69 ± 1.51%,34.17 ± 3.88%,0.45 ± 0.15 %,78.90 ± 0.11 %,"Early apoptosis (representative cytogram) (MCF-7 cells [3]; [6]): 24.99%; Late apoptosis (representative cytogram) (MCF-7 cells [3]; [6]): 59.54%; Live cells (representative cytogram) (MCF-7 cells [3]; [6]): 15.26%; Necrotic cells (representative cytogram) (MCF-7 cells [3]; [6]): 0.21%; Late Apoptotic [E++] (MCF-7 cells [3]; IC50 (Comp. 1 13, Comp. 4 430, Comp. 7 55 μmol/L), listed as Comp. 4): 60.16 ± 2.21 %; Early Apoptotic [E+−] (MCF-7 cells [3]; [9]): 30.69 ± 3.01 %; Late Apoptotic [E++] (MCF-7 cells [3]; [9]): 34.69 ± 1.51 %; Living Cells [E−−] (MCF-7 cells [3]; [9]): 34.17 ± 3.88 %"
decrease in uptake,increase in its uptake,,"OCT3, PMAT",,,,"OCT1, OCT3",CN(C)C(=N)N=C(N)NS(=O)(=O)c1ccccc1F [Compound 7],,24.35 ± 2.19 %,43.24 ± 4.09 %,31.88 ± 4.77 %,0.54 ± 0.01 %,79.48 ± 0.82 %,23.59 ± 1.57 %,35.98 ± 4.64 %,39.85 ± 5.67 %,0.57 ± 0.03 %,78.97 ± 0.51 %,G0/G1 (MDA-MB-231 cells [4]): 64.31 ± 1.13 %; G2/M (MDA-MB-231 cells [4]): 12.24 ± 0.10 %; S (MDA-MB-231 cells [4]): 19.99 ± 0.97 %; Sub G0/G1 (MDA-MB-231 cells [4]): 3.41 ± 0.08 %
significantly decreased,significantly higher uptake,significantly decreased,"OCT1, OCT3, PMAT, MATE1",No statistically significant changes,significantly higher uptake,significantly higher uptake,"OCT1, PMAT",CN(C)C(=N)N=C(N)NS(=O)(=O)c1ccccc1Cl [Compound 1],"Lower uptake, however, not statistically significant",35.79 ± 3.78 %,33.84 ± 3.17 %,29.96 ± 6.41 %,0.41 ± 0.02 %,82.66 ± 0.68 %,27.59 ± 1.03 %,38.93 ± 3.46 %,32.82 ± 4.50 %,0.67 ± 0.08%,77.51 ± 0.92 %,"uptake in the presence of methenamine, MDA-MB-231 (MDA-MB-231 cells [2]; [5]): No statistically significant changes"
